# Literature values as cited in patent US12599598B2, “Osmotic dosage forms comprising deutetrabenazine and methods of use thereof” (Auspex Pharmaceuticals, Inc., priority 2020, dated 2026).
# Conditions: in vivo
structure (smiles),measurement,value
"[2H]C([2H])([2H])Oc1cc2c(cc1OC([2H])([2H])[2H])[C@H]1CC(=O)[C@H](CC(C)C)CN1CC2 [Deutetrabenazine, (RR,SS)-1,3,4,6,7,11b-hexahydro-9,10-di(methoxy-d3)-3-(2-methylpropyl)-2H-benzo[a]quinolizin-2-one]","half-life of its active metabolites, relative to tetrabenazine",increased half-life
